Tests used:
Type in all cases: cell-based
mPanx1 [1] = biological target: T1, mPanx1 (Mus musculus, UniProt Q9JIP4); assay: whole-cell patch clamp, CHO cells transfected with mPanx1, single dose […]; details: read-out: I% ^a
T1 construct: gene Panx1

mPanx1 [2] = biological target: T1, mPanx1; assay: whole-cell patch clamp, CHO cells transfected with mPanx1, dose-response (IC50 low micromolar, number not given); details: read-out: I% ^a
mPanx1 [3] = biological target: T1, mPanx1; assay: whole-cell patch clamp, CHO cells transfected with mPanx1, dose-response

T1 sequence (Q9JIP4 whole entry): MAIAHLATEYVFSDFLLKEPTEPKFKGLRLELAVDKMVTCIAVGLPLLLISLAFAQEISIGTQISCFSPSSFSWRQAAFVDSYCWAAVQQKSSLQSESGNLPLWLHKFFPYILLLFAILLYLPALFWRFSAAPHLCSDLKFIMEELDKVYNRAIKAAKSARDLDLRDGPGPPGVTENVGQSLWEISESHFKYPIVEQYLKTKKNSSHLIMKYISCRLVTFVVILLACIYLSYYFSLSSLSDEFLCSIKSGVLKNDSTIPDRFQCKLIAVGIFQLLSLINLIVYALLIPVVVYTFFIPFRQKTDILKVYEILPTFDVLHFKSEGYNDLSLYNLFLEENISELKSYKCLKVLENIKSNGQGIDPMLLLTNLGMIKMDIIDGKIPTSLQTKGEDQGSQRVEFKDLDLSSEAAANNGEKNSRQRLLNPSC

Structure (SMILES)	inhibition at 50 µM (mPanx1 [1]) [%]	further results
NS(=O)(=O)c1ccc2c(c1)c(=O)c(C(=O)O)cn2Cc1ccc(C(=O)O)cc1 [5b, 1-(4-Carboxybenzyl)-4-oxo-6-sulfamoyl-1,4-dihydroquinoline-3-carboxylic acid]	48.8 ± 5.9	
CCN(CC)S(=O)(=O)c1ccc2c(c1)c(=O)c(C(=O)O)cn2Cc1ccc(S(N)(=O)=O)cc1 [12c, 6-(N,N-Diethylsulfamoyl)-4-oxo-1-(4-sulfamoylbenzyl)-1,4-dihydroquinoline-3-carboxylic acid]	49.5 ± 6	
O=C(O)c1ccc(CN(Cc2ccc(C(=O)O)cc2)S(=O)(=O)c2ccc3c(c2)c(=O)c(C(=O)O)cn3Cc2ccc(C(=O)O)cc2)cc1 [compound 7, 4,4′-{[((3-carboxy-1-(4-carboxybenzyl)-4-oxo-1,4-dihydroquinolin-6-yl)sulfonyl)azanediyl]bis(methylene)} dibenzoic acid]		inhibition at 50 µM (mPanx1 [2]): 79.7 ± 7.2%
CCN(CC)S(=O)(=O)c1ccc2c(c1)c(=O)c(C(=O)O)cn2Cc1ccc(C(=O)O)cc1 [12b, 1-(4-Carboxybenzyl)-6-(N,N-diethylsulfamoyl)-4-oxo-1,4-dihydroquinoline-3-carboxylic acid]	73.2 ± 11.9	
CCCN(CCC)S(=O)(=O)c1ccc2c(c1)c(=O)c(C(=O)O)cn2Cc1ccc(S(N)(=O)=O)cc1 [12f, 6-(N,N-Dipropylsulfamoyl)-4-oxo-1-(4-sulfamoylbenzyl)-1,4-dihydroquinoline-3-carboxylic acid]		IC50 (mPanx1 [3]): 2700 nM
CCCN(CCC)S(=O)(=O)c1ccc2c(c1)c(=O)c(C(=O)O)cn2Cc1ccc(C(=O)O)cc1 [12e, 1-(4-Carboxybenzyl)-6-(N,N-dipropylsulfamoyl)-4-oxo-1,4-dihydroquinoline-3-carboxylic acid]		inhibition at 50 µM (mPanx1 [2]): 84.8 ± 4.4%
CCN(CC)S(=O)(=O)c1ccc2c(c1)c(=O)c(C(=O)O)cn2Cc1ccccc1 [12a, 1-Benzyl-6-(N,N-diethylsulfamoyl)-4-oxo-1,4-dihydroquinoline-3-carboxylic acid]	54.6 ± 6	
CCCN(CCC)S(=O)(=O)c1ccc2c(c1)c(=O)c(C(=O)O)cn2CCc1ccccc1 [12g, 6-(N,N-Dipropylsulfamoyl)-4-oxo-1-phenethyl-1,4-dihydroquinoline-3-carboxylic acid]	57.2 ± 8.5	

Source: publication PMC12114274, “Synthesis of 3-Carboxy-6-sulfamoylquinolones and Mefloquine-Based Compounds as Panx1 Blockers: Molecular Docking, Electrophysiological and Cell Culture Studies” (Molecules, 2025)
